Assay results taken from patent US9157099B2, “Methods for preparing a hydrocarbon” (SHELL OIL COMPANY, priority 2012, dated 2015).
Entries after “also recorded” stand apart in the source; their conditions may differ. Values belong to the molecule of their own block, whether it stands above or below them.

Key:
purified His-Fdc1/Pad1 [1] = target: T1, purified His-Fdc1/Pad1 (Saccharomyces cerevisiae, UniProt Q03034); assay: head space GC-MS product analysis, in vitro reactions; type: biochemical; set-up: His (N); made in house; host or cells: E. coli Bl21(DE3), pCOLAduet-1 co-expression plasmid, Ni-NTA purified; settings: purified enzyme, 25° C.
T1 sequence (Q03034 1-503): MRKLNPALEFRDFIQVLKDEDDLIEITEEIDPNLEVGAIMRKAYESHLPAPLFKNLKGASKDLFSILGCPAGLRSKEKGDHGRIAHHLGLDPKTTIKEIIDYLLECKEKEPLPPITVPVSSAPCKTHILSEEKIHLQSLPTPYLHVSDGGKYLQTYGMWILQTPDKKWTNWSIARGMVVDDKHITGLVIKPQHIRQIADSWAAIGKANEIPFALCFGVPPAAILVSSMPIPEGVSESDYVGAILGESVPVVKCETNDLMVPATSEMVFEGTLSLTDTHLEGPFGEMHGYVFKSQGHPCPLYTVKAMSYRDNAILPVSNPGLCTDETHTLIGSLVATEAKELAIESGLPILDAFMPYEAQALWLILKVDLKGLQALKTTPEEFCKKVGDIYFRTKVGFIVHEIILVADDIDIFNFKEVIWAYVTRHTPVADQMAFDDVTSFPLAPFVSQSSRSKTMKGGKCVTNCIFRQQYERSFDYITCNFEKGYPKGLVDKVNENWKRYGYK
Protocol: For in vitro analysis, purified His-Fdc1/Pad1 polypeptide was buffer exchanged into a solution of 150 mM NaCl and 50 mM NaPi in water with pH 7.5. Subsequently solutions of 11.5 ml 150 mM NaCl and 50 mM NaPi with pH 7.5, of 3.5 ml 20 mM substrate with pH 7.5 and of 150 μl 30 mg/ml enzyme in water or buffer were added to 20 ml head space vials with crimp top seals. Reactions were incubated with shaking at 25° C. for about 12-48 hours.
(§1) Samples were analysed by GC-MS using a Thermofisher DSQ II. Vials were incubated for 3 minutes at 80° C. with agitation. 0.5 ml headspace was injected with a 105° C. syringe and a split ratio of 1/10. Analytes were separated on a 30 m 0.25 mm 0.25μ ZB5-MS (commercially obtainable from Zebron) column run (alternatively a 30 m×0.25 mm i.d.×0.1μ Varian VF-5HT column may be used) with a flow of 1.5 ml/min He. Oven temperature was held at 35° C. for 2 minutes before being ramped up to 250° C. at 10° C./min. Products were identified by searching for the corresponding mass peak.
For in vitro reactions, Fdc1/Pad1 partially purified by Ni^2+ affinity and buffer exchanged into 150 mM NaCl, 50 mM NaPi pH 7.5. 11.5 ml […] pH 7.5, 3.5 ml 20 mM substrate pH 7.5 and 150 μl 30 mg/ml enzyme or enzyme free buffer were added to a sealed headspace vial.
(§2) All Fdc1/Pad1 reactions were incubated in a shaking incubator at 25° C. for ˜36 hours.
as §1, with “(or” for “(commercially obtainable from Zebron) column run (alternatively a”, “VF-5HT)” for “VF-5HT”, “run” for “may be used)”, “raised” for “ramped up”

[2] = target: T2, fdc1/pad1 in pCOLAduet in E. coli Bl21(DE3) (Saccharomyces cerevisiae, UniProt Q03034); assay: head space GC-MS product analysis, in vivo (induced cultures); type: cell-based; settings: E. coli cultures expressing Fdc1/Pad1, 25° C.
T2 construct: expressed in transfected cells; host or cells: E. coli Bl21(DE3) carrying fdc1 (MCS1) and pad1 (MCS2) in pCOLAduet-1
T2 sequence (Q03034 1-503): T1 sequence (Q03034 1-503)
Protocol: For in vivo analysis, fdc1/pad1 in pCOLAduet and empty pCOLAduet in E. coli Bl21(DE3) were grown in LB supplemented with 40 μg/ml kanamycin at 37° C. to an OD600 of about 0.7 and induced with […] IPTG. 11.5 ml induced culture and a solution of 3.5 ml 20 mM substrate in distilled water with a pH of about 7.5 were placed in 20 ml head space vials with crimp top seals. Cultures were incubated in shaking incubator at 25° C. for about 12-48 hours.
as §1
As described above, for in vivo studies, Fdc1/Pad1 in pCOLAduet-1 and empty pCOLAduet-1 vector were transformed into E. coli Bl21(DE3). Cultures were grown in LB supplemented with 40 μg/ml kanamycin at 37° C. to OD600˜0.7 and induced with 1 mM IPTG. 11.5 ml of induced culture was added to 3.5 ml 20 mM substrate pH ˜7.5 per tube in a sealed headspace vial.
as §2
as §1, with “(or” for “(commercially obtainable from Zebron) column run (alternatively a”, “VF-5HT)” for “VF-5HT”, “run” for “may be used)”, “raised” for “ramped up”

Fdc1/Pad1 = target: T3, Fdc1/Pad1 (Saccharomyces cerevisiae, UniProt Q03034); assay: Fdc1/Pad1 substrate range, in vivo and in vitro (summary); settings: summary of substrate range
T3 construct: His (N); made in house; host or cells: E. coli Bl21(DE3), pCOLAduet-1
T3 sequence (Q03034 1-503): T1 sequence (Q03034 1-503)
Text: To assess what limit the enzyme imposes on the extent of unsaturation, the inventors tested a wide range of saturated and unsaturated substrates, both in vivo and in vitro.

purified His-Fdc1/Pad1 [3] = target: T1, purified His-Fdc1/Pad1; assay: UV-VIS spectroscopy of substrate consumption, Michaelis Menten parameters; settings: for Kcat: substrate of purified His-Fdc1/Pad1, pH 6, 20° C.
Protocol: A direct observation of enzyme activity is possible by recording UV-VIS spectra of the solution. Aromatic substrates and aliphatic substrates with two or more double bonds conjugated to the acidic group absorb in the UV region. The activity of purified His-Fdc1/Pad1 was assayed against varying concentrations of these substrates in 400 μl 50 mM KCl, 50 mM NaPi pH 6 in a 1 mm pathlength cuvette at 20° C. Substrate consumption was monitored using a Cary 50 Bio spectrophotometer (varian) either in scanning mode, or at a specific wavelength for kinetic experiments. The rate of cinnamic acid consumption was monitored at 270 nm, ferulic acid at 312 nm, 2,4-pentadienoic acid at 242 nm, sorbic acid at 260 nm, 2,4,6-octatrienoic acid at 290 nm and 2,4-nonadienoic acid at 260 nm.

[4] = target: E. coli Bl21(DE3) cells containing the fdc1/pad1 co-expression plasmid (Saccharomyces cerevisiae, UniProt Q03034); settings: 6 mM sorbic acid, pH 6.2, overnight at 37° C.
Protocol: In vivo enzyme activity assays were carried out using exogenous supplied substrates in the media (i.e. sorbic acid).
For in vivo pH assays, LB agar plates were supplemented with […] kanamycin, 6 mM sorbic acid and 0.004% w/v phenol red in distilled water and buffered to pH 6.2. E. coli Bl21(DE3) cells containing either the co-expression plasmid or empty pCOLAduet-1 were inoculated onto the plate and grown overnight at 37° C. […] This allows rapid visual indication of enzyme activity levels.

[5] = substrate: C=CC=CC(=O)O; assay: purified protein, by the assay type; settings: other: substrate of purified His-Fdc1/Pad1, pH 6, 20° C.
[6] = substrate: C/C=C/C=C/C(=O)O; assay: purified protein, by the assay type; settings: other: substrate of purified His-Fdc1/Pad1, pH 6, 20° C.
[7] = substrate: CC=CC=CC=CC(=O)O; assay: purified protein, by the assay type; settings: other: substrate of purified His-Fdc1/Pad1, pH 6, 20° C.
[8] = substrate: COc1cc(/C=C/C(=O)O)ccc1O; assay: purified protein, by the assay type; settings: other: substrate of purified His-Fdc1/Pad1, pH 6, 20° C.
[9] = substrate: O=C(O)C=Cc1ccccc1; assay: purified protein, by the assay type; settings: other: substrate of purified His-Fdc1/Pad1, pH 6, 20° C.
[10] = substrate: CCCCC=CC=CC(=O)O; assay: purified protein, by the assay type; settings: other: substrate of purified His-Fdc1/Pad1, pH 6, 20° C.

Molecule: C/C=C/C=C/C(=O)O [Sorbic acid]
decarboxylation product formation by GC-MS, in vitro (purified His-Fdc1/Pad1 [1]): confirmed product formation
decarboxylation product formation by GC-MS, in vivo [2]: verified the presence of the anticipated decarboxylation products
substrate dependent alkalinification in vivo [4]: yellow to red colour change observed
in vitro and in vivo activity (decarboxylation) (Fdc1/Pad1): high
Kcat (purified His-Fdc1/Pad1 [3]): 2.793 s⁻¹

Molecule: O=C(O)C=Cc1ccccc1 [Cinnamic acid]
decarboxylation product formation by GC-MS, in vitro (purified His-Fdc1/Pad1 [1]): confirmed product formation; also recorded: confirming styrene production
decarboxylation product formation by GC-MS, in vivo [2]: verified the presence of the anticipated decarboxylation products; also recorded: confirming styrene production
in vitro and in vivo activity (decarboxylation) (Fdc1/Pad1): high
Kcat (purified His-Fdc1/Pad1 [3]): 34.394 s⁻¹

Molecule: CC=CC=CC=CC(=O)O [2,4,6-Octatrienoic acid]
in vitro and in vivo activity (decarboxylation) (Fdc1/Pad1): high
enzyme dependent spectral changes / conversion by UV-VIS (purified His-Fdc1/Pad1 [3]): enzyme catalysed conversion

Molecule: CCCCC=CC(=O)O [2-Heptenoic acid]
decarboxylation product formation by GC-MS, in vivo [2]: only been detected in vivo; also recorded: In vivo activity has also been detected

B1: purified His-Fdc1/Pad1 (Saccharomyces cerevisiae S288C) (protein)
chain: T1 sequence (Q03034 1-503)
Km [5]: 109 µM
kcat [5]: 0.336 s⁻¹
Km [6]: 81 µM
Km [7]: 213 µM
kcat [7]: 99 s⁻¹
Km [8]: 203 µM
Km [9]: 21 µM
Km [10]: 221 µM
kcat [10]: 0.588 s⁻¹

Now from value to molecule, other results behind:

decarboxylation product formation by GC-MS, in vitro (purified His-Fdc1/Pad1 [1]): confirmed product formation
in vitro and in vivo activity (decarboxylation) (Fdc1/Pad1): high
Kcat (purified His-Fdc1/Pad1 [3]): 30.774 s⁻¹
Molecule: COc1cc(/C=C/C(=O)O)ccc1O [Ferulic acid]
decarboxylation product formation by GC-MS, in vivo [2]: verified the presence of the anticipated decarboxylation products

in vitro and in vivo activity (decarboxylation) (Fdc1/Pad1): high
Molecule: C=CC=CC(=O)O [2,4-Pentadienoic acid]

decarboxylation product formation by GC-MS, in vivo [2]: only been detected in vivo
decarboxylation product formation by GC-MS, in vivo ([2]; listed as 2-octenoic acids): In vivo activity has also been detected
Molecule: CCCCCC=CC(=O)O [2-Octenoic acid]

decarboxylation product formation by GC-MS, in vivo [2]: also been detected in vivo
in vitro and in vivo activity (decarboxylation) (Fdc1/Pad1): Lower level activity
Molecule: CCCC=CC(=O)O [2-Hexenoic acid]
decarboxylation product formation by GC-MS, in vitro (purified His-Fdc1/Pad1 [1]): 1-pentene product has been detected and enzyme-catalysed production of 1-pentene

in vitro and in vivo activity (decarboxylation) (Fdc1/Pad1): high
Molecule: CCCCC=CC=CC(=O)O [2,4-Nonadienoic acid]
